Results from ChEMBL document CHEMBL1201862, “PubChem BioAssay data set” (2004).
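Compound exposure: 48 hours, 5 concentrations, 96-well plates. GI50 marks 50% less growth.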 Calls of active or inactive are those of the source. No stated cut-off is given here; in the data, active = GI50 up to about 1.1 µM and inactive = higher.

Legend:
Test in all cases: NCI-60 cell line screen, 48 h
786-0 = tested on: 786-0
ACHN = tested on: ACHN
BT-549 = tested on: BT-549
CAKI-1 = tested on: CAKI-1
COLO 205 = tested on: COLO 205
HCC 2998 = tested on: HCC 2998
Hs-578T = tested on: Hs-578T
MDA-N = tested on: MDA-N
MOLT-4 = tested on: MOLT-4
NCI-H226 = tested on: NCI-H226
NCI-H23 = tested on: NCI-H23
NCI-H460 = tested on: NCI-H460
NCI-H522 = tested on: NCI-H522
OVCAR-5 = tested on: OVCAR-5
SF-539 = tested on: SF-539
SK-OV-3 = tested on: SK-OV-3
SN12C = tested on: SN12C
TK-10 = tested on: TK-10
UACC-257 = tested on: UACC-257
HL-60 = tested on: HL-60

Compound | GI50 (786-0) | GI50 (ACHN) | GI50 (BT-549) | GI50 (CAKI-1) | GI50 (COLO 205) | GI50 (HCC 2998) | GI50 (Hs-578T) | GI50 (MDA-N) | GI50 (MOLT-4) | GI50 (NCI-H226) | GI50 (NCI-H23) | GI50 (NCI-H460) | GI50 (NCI-H522) | GI50 (OVCAR-5) | GI50 (SF-539) | GI50 (SK-OV-3) | GI50 (SN12C) | GI50 (TK-10) | GI50 (UACC-257) | GI50 (HL-60)
Nc1ncnc2c1ncn2CCCCC(=O)O | > 100 µM (inactive) | > 100 µM (inactive) | > 100 µM (inactive) | > 100 µM (inactive) | > 100 µM (inactive) | > 100 µM (inactive) | > 100 µM (inactive) | > 100 µM (inactive) | > 100 µM (inactive) | > 100 µM (inactive) | > 100 µM (inactive) | > 100 µM (inactive) | > 100 µM (inactive) | > 100 µM (inactive) | > 100 µM (inactive) | > 100 µM (inactive) | > 100 µM (inactive) | > 100 µM (inactive) | > 100 µM (inactive) | 
CC1(C)CC(=O)C(C(c2cccc(O)c2O)C2C(=O)CC(C)(C)CC2=O)C(=O)C1 | 52.6 µM (inactive) | > 100 µM (inactive) | > 100 µM (inactive) | > 100 µM (inactive) | > 100 µM (inactive) |  | 74.5 µM (inactive) | > 100 µM (inactive) | 30.3 µM (inactive) | > 100 µM (inactive) | > 100 µM (inactive) | > 100 µM (inactive) | 63.2 µM (inactive) | > 100 µM (inactive) | > 100 µM (inactive) | > 100 µM (inactive) | > 100 µM (inactive) | > 100 µM (inactive) | > 100 µM (inactive) | < 0.01 µM (active)
CC(C)=CCC[C@]1(C)CC[C@]2(C)C3CCC(=C(C)C)[C@@H](CCCO)[C@]3(C)CC[C@@]2(C)C1 (stereo partly specified) | 32.4 µM (inactive) | 83 µM (inactive) | > 100 µM (inactive) | 95.7 µM (inactive) | > 100 µM (inactive) | 25.5 µM (inactive) | > 100 µM (inactive) | 89.3 µM (inactive) | 39.2 µM (inactive) | > 100 µM (inactive) | 84.9 µM (inactive) | 54.1 µM (inactive) | 17.8 µM (inactive) | 59.4 µM (inactive) |  | > 100 µM (inactive) | 54.5 µM (inactive) | 20.2 µM (inactive) | 24 µM (inactive) | 33.8 µM (inactive)
Cc1c(C)c2c(c(N)c1C#N)C(=O)N(CCc1ccccc1)C2=O | > 100 µM (inactive) | > 100 µM (inactive) | > 100 µM (inactive) | > 100 µM (inactive) | > 100 µM (inactive) | > 100 µM (inactive) | > 100 µM (inactive) | > 100 µM (inactive) | 72.6 µM (inactive) | > 100 µM (inactive) |  | > 100 µM (inactive) | > 100 µM (inactive) | > 100 µM (inactive) | > 100 µM (inactive) |  | > 100 µM (inactive) | > 100 µM (inactive) | > 100 µM (inactive) | 29.2 µM (inactive)
C[C@]12CC[C@H]3[C@@H](CCC4=CC(=O)CC[C@@H]43)[C@@H]1CC[C@@H]2OC1(O)C(=O)c2ccccc2C1=O | 24.9 µM (inactive) | 27.7 µM (inactive) | 66.8 µM (inactive) | 80.2 µM (inactive) | 24.4 µM (inactive) | > 100 µM (inactive) | 11.2 µM (inactive) | 17.6 µM (inactive) | 33.3 µM (inactive) | > 100 µM (inactive) | 27.1 µM (inactive) | 67 µM (inactive) | 17.3 µM (inactive) | 27.6 µM (inactive) | 32.4 µM (inactive) | > 100 µM (inactive) | 17 µM (inactive) | 32.5 µM (inactive) | 28.5 µM (inactive) | 
CN(C)CCNC(=O)c1cccc2c(NCCN(C)C)c3ccccc3nc12 | 1.7 µM (inactive) | 1.76 µM (inactive) | 7.59 µM (inactive) | 2.69 µM (inactive) | 1.92 µM (inactive) | 1.91 µM (inactive) | 2.66 µM (inactive) | 3.15 µM (inactive) | 1 µM (active) | 1.37 µM (inactive) | 2.33 µM (inactive) | 1.37 µM (inactive) | 1.37 µM (inactive) | 2.89 µM (inactive) | 3.05 µM (inactive) | 7.4 µM (inactive) | 1.73 µM (inactive) | 3.24 µM (inactive) | 5.14 µM (inactive) | 
O=c1ccc2c(Cl)sc(Cl)c2[nH]1 | > 100 µM (inactive) | > 100 µM (inactive) | > 100 µM (inactive) | > 100 µM (inactive) |  | > 100 µM (inactive) | 35.2 µM (inactive) | > 100 µM (inactive) | > 100 µM (inactive) |  | > 100 µM (inactive) | > 100 µM (inactive) | 92.9 µM (inactive) | > 100 µM (inactive) |  | > 100 µM (inactive) | > 100 µM (inactive) | > 100 µM (inactive) | > 100 µM (inactive) | 
O=C1c2c(Br)sc(Br)c2[C@H]2OC(=S)N[C@@H]12 | 11.3 µM (inactive) | 4.45 µM (inactive) | 10 µM (inactive) | 3.25 µM (inactive) | 2.51 µM (inactive) | 10.6 µM (inactive) | 11.8 µM (inactive) | 5.04 µM (inactive) | 2.17 µM (inactive) | 17.1 µM (inactive) | 5.15 µM (inactive) | 16.6 µM (inactive) | 1.69 µM (inactive) | 17.1 µM (inactive) | 16.6 µM (inactive) | 15.7 µM (inactive) | 3.21 µM (inactive) | 20.2 µM (inactive) | 7.08 µM (inactive) | 
Cc1ccc(/N=N/C(=N/NC(=O)c2cc(Cl)ccc2C(=O)c2ccccc2)c2ccc(N(CCC#N)CCC#N)cc2C)cc1 | 10.4 µM (inactive) | 22 µM (inactive) | 15.4 µM (inactive) | 20.4 µM (inactive) | 9.14 µM (inactive) | 13.8 µM (inactive) | 27.2 µM (inactive) | 17 µM (inactive) | 4.99 µM (inactive) | 10.4 µM (inactive) | 21.8 µM (inactive) | 2.41 µM (inactive) | 4.81 µM (inactive) | 21.3 µM (inactive) |  | 8.09 µM (inactive) | 9.75 µM (inactive) | 19.7 µM (inactive) | 15.9 µM (inactive) | 
O=C(O)CNc1ccc(Cl)c(Cl)c1 | 24.7 µM (inactive) | 20 µM (inactive) | 36.7 µM (inactive) | 17.9 µM (inactive) | 18.5 µM (inactive) |  | 33.6 µM (inactive) | 23.7 µM (inactive) | 29.6 µM (inactive) | 27.5 µM (inactive) | 34.4 µM (inactive) | 23.6 µM (inactive) | 16.3 µM (inactive) | 40.9 µM (inactive) | 33.5 µM (inactive) | 37.8 µM (inactive) | 32.7 µM (inactive) | 20 µM (inactive) | 26.7 µM (inactive) | 24 µM (inactive)
C=C(CCC=C(C)C)C1CC=C(C)CC1 (stereo unspecified) | 17.1 µM (inactive) | 17.8 µM (inactive) | 95.7 µM (inactive) | 19.7 µM (inactive) | 26.4 µM (inactive) |  | 20.9 µM (inactive) | 18.5 µM (inactive) |  | > 100 µM (inactive) | 17.7 µM (inactive) | 19.3 µM (inactive) | 16.4 µM (inactive) | > 100 µM (inactive) | 25.9 µM (inactive) | > 100 µM (inactive) | 19.7 µM (inactive) | 38.5 µM (inactive) | > 100 µM (inactive) | 
Cc1c(Cl)ccc2c1NC(=O)C2(O)CC(=O)c1ccc(Cl)cc1Cl (stereo unspecified) | 27.2 µM (inactive) | 36.7 µM (inactive) | > 50 µM (inactive) | > 28.7 µM (inactive) | > 50 µM (inactive) | > 50 µM (inactive) | 12.9 µM (inactive) | > 50 µM (inactive) | 22.5 µM (inactive) | > 29.4 µM (inactive) | > 47.1 µM (inactive) | > 50 µM (inactive) | > 50 µM (inactive) | > 50 µM (inactive) | 17.7 µM (inactive) | > 45.9 µM (inactive) | > 50 µM (inactive) | 30.5 µM (inactive) | > 50 µM (inactive) | 
CCOC(=O)Nn1c(C)nnc1-c1ccccc1 | > 100 µM (inactive) | > 100 µM (inactive) | > 100 µM (inactive) | > 100 µM (inactive) | > 100 µM (inactive) | > 100 µM (inactive) | > 100 µM (inactive) | > 100 µM (inactive) | > 100 µM (inactive) | > 100 µM (inactive) | > 100 µM (inactive) | > 100 µM (inactive) | > 100 µM (inactive) | > 100 µM (inactive) | > 100 µM (inactive) | 61.7 µM (inactive) | > 100 µM (inactive) | > 100 µM (inactive) | > 100 µM (inactive) | 
O=C(O)c1c(Cl)c(Cl)c(Cl)c(Cl)c1C(=O)Nc1ccc2cn[nH]c2c1 | > 100 µM (inactive) | > 100 µM (inactive) | > 100 µM (inactive) | > 100 µM (inactive) | > 100 µM (inactive) |  | 39.7 µM (inactive) | > 100 µM (inactive) |  | > 100 µM (inactive) | > 100 µM (inactive) | > 100 µM (inactive) | > 100 µM (inactive) | > 100 µM (inactive) | > 100 µM (inactive) | > 100 µM (inactive) | > 100 µM (inactive) | > 100 µM (inactive) | > 100 µM (inactive) | 
CC(C)OC(=O)Nc1cccc(Cl)c1 [CHLORPROPHAM] | > 100 µM (inactive) | > 100 µM (inactive) | 87.7 µM (inactive) | > 100 µM (inactive) | > 100 µM (inactive) | > 100 µM (inactive) | > 100 µM (inactive) | > 100 µM (inactive) | > 100 µM (inactive) | > 100 µM (inactive) | > 100 µM (inactive) | 76.4 µM (inactive) |  | > 100 µM (inactive) | > 100 µM (inactive) | > 100 µM (inactive) | > 100 µM (inactive) | > 100 µM (inactive) | > 100 µM (inactive) | > 100 µM (inactive)
